Results on four molecules are retold here after PMC7397040, “New Copper(I) Complex with a Coumarin as Ligand with Antibacterial Activity against Flavobacterium psychrophilum” (Molecules, 2020).

In brackets after ≈: the same amount, converted by molar mass. Read-outs that look alike come from different tables or passages of the source. Marks after values point to notes of the source that are not given here.

Details of data set [1]: method as in PMID 30177987. To be noted: versus Ag/AgCl in CH2Cl2 ref 18; cited from earlier work.
Data set [2] concerns intestinal epithelial cell line (RT-GUT). Put plainly: cells. To be noted: for toxicity (in words) / IC50 (cellular): RT-GUT; for toxicity (in words): 512 to 2 μg/mL; for IC50 (cellular): 24 h at 16 °C, n = 6. The protocol: (§1) Since F. psychrophilum is a bacterial pathogen that affects a wide variety of salmonids, we evaluated the toxicity of the [Cu(NN1)2]ClO4 complex in three different cell lines, Chinook salmon embryo (CHSE-214), Salmon Head Kidney-1 (SHK-1) and intestinal epithelial cell line (RT-GUT). For this experiment 1 × 10^5 cells were treated with the different compounds (coumarin, Cu(I) salt and copper (I) complex) in a range of concentrations between 512 μg/mL and 2 μg/mL, incubated at 16 °C for 24 h.
(§2) 1 × 10^5 Cells were seeded and incubated at 16 °C for 24 h. Later, the cells were treated with compounds in concentrations from 512 μg/mL to 2 μg/mL solubilized in dimethyl sulfoxide (DMSO, Merck, Darmstadt, Germany) and incubated at 16 °C for 24 h. Subsequently, the cells were collected, pelleted and resuspended in IF buffer (1X buffer and 2% fetal bovine serum) and 1 µL propidium iodide (PI, 1 mg/mL) was added. The cellular viability (negative to PI) was analyzed by flow cytometer using FACSCanto II Cytometer (BD biosciences, University of Santiago of Chile, Santiago, RM, Chile). For positive control, cells were incubated without compounds; for death control, cells were incubated with 50% ethanol; medium control cells were treated with medium containing 1% of DMSO. To calculate the IC50 of compounds in the cell lines, they were analyzed using GraphPad Prism program 5.0 (GraphPad Software, San Diego, CA, USA), the concentrations were transformed into log (10) and the number of events normalized in percentage, for the calculation of IC50 a nonlinear regression was performed.

Data set [3] concerns Salmon Head Kidney-1 (SHK-1) cells. Put plainly: cells. The note with it: for toxicity (in words): SHK-1, 512 to 2 μg/mL; for IC50 (cellular): SHK-1, 24 h at 16 °C, n = 6. The protocol:
as §1, §2

In data set [4] the test system is Chinook salmon embryo (CHSE-214) cells. The experiment in a line: cells. To be noted: for toxicity (in words): CHSE-214, 512 to 2 μg/mL, 24 h; for IC50 (cellular): CHSE-214, 24 h at 16 °C, n = 6. The protocol: as §1, §2
Data set [5] has as its system Flavobacterium psychrophilum 10094. The experiment in a line: Antibacterial test (microdilution: MIC, MBC, IC50). The class given is cell-based. The note with it: for MBC / MIC: n = 3; for MIC: F. psychrophilum 10094, 72 h post-incubation, visual; for Amount Cu in MBC / Amount Cu in MIC / Amount Total in IC50 / Amount Total in MBC / Amount Total in MIC: F. psychrophilum; for Amount Cu in MBC / Amount Cu in MIC: amount of copper contained; for Amount Total in IC50 / Amount Total in MBC / Amount Total in MIC: total compound. How it is done:
A bacterial strain of Flavobacterium psychrophilum (ETECMA) originally isolated from Salmon Coho (Oncorhynchus kisutch) in 2008 in Chiloe, Chile, was used for antibacterial test. […] The strain was cultivated in TYES broth (pH = 7.2) at 15 °C for 48 h with stirring at 180 rpm.
To determine MIC, MBC and IC50 of complex and its precursors, microdilution method was performed with some modifications. F. psychrophilum 10094 (0.4 OD600 nm = 1 × 10^8 CFU/mL, approximately) was inoculated in TYES broth pH 7.2 to 1% cell suspension in 96-well plates (Falcon) and treated with complex and its precursors in serial concentrations between 512 μg/mL to 2 μg/mL and incubated for 72 h at 15 °C with agitation at 180 rpm. The MIC was determined as the lowest compounds concentrations which inhibited bacterial grow by visual comparison with the negative control (TYES broth). […] The MBC was determined as the minimum concentration of the compounds at which the bacterial colony count was diminish to 99.9%. For determination of the half-maximal inhibitory concentration (IC50) of compounds on F. psychrophilum, the OD600 nm of each wells was measured using Nanoquant Infinite M200 Pro (TECAN, Grödig, Austria). For the correct calculation of the OD of each concentration of each compound, wells with TYES medium were used with each concentration without inoculating with F. psychrophilum, this control OD was subtracted obtaining the final OD. Data were analyzed using the GraphPad Prism program 5.0.
For orientation: Dilution methods test growth across graded concentrations, often in twofold steps.

The nature of data set [6]: Stability in solution by UV-Vis spectra. Format: physicochemical. To be noted: 72 h after the solution was prepared, CHCl3, air-exposed, room temperature. The protocol: The spectral region below 400 nm in complex correspond at π to π* intraligand transition bands, which are similar profile of free ligand, but undergo a red-shift upon complexation to copper(I) in around 20 nm.
All the chemicals were purchased commercially and used without further purification. ^1H, ^13C NMR and 2D spectra were recorded on a Bruker Avance Neo 400 MHz spectrometer (400.133 MHz for ^1H, 40.559 MHz for ^15N and 100.613 MHz for ^13C, (University of Santiago of Chile, Santiago, RM, Chile) equipped with a 5 mm multinuclear broad-band dual probehead, incorporating a z-gradient coil. All the measurement was done in CDCl3 at 300 K. Chemical shifts (in ppm) for ^1H and ^13C were calibrated respect to the residual protonated signal of the solvent (7.26 and 77 ppm respectively) and reported relative to Me4Si. The ^15N signal in ^1H ^15N HMBC were calibrated relative to CH3NO2 (90%) in CDCl3). The following abbreviations were used to explain the multiplicities: s = singlet, d = doublet, m = multiplet. […] Electrochemical behavior was studied by cyclic voltammetry using a potentiostat CHI 620E by CH instrument equipment supplied with the electrochemical analyzer CHI software (University of Santiago of Chile, Santiago, RM, Chile). […]

A short description of data set [7]: Cyclic voltammetry, Cu(II)/Cu(I) oxidation potential. Format: physicochemical. To be noted: vs Ag/AgCl, CH2Cl2, 0.1 M TBAP, quasireversible, ΔE = 114 mV. How it is done: Voltammetry studies were also performed in order to determine the effect of new NN1 ligand on the Cu(II)/Cu(I) oxidation potential considering the well-known fact of high influence of ligands on the metal-centered HOMO energy. Consequently, measurements were registered at room temperature in −1.10 to +1.30 V vs Ag/AgCl potential range.
All the chemicals were purchased commercially and used without further purification. ^1H, ^13C NMR and 2D spectra were recorded on a Bruker Avance Neo 400 MHz spectrometer (400.133 MHz for ^1H, 40.559 MHz for ^15N and 100.613 MHz for ^13C, (University of Santiago of Chile, Santiago, RM, Chile) equipped with a 5 mm multinuclear broad-band dual probehead, incorporating a z-gradient coil. All the measurement was done in CDCl3 at 300 K. Chemical shifts (in ppm) for ^1H and ^13C were calibrated respect to the residual protonated signal of the solvent (7.26 and 77 ppm respectively) and reported relative to Me4Si. The ^15N signal in ^1H ^15N HMBC were calibrated relative to CH3NO2 (90%) in CDCl3). […] Electronic spectra were recorded on a PerkinElmer UV-VIS Lambda 25 spectrophotometer (University of Santiago of Chile, Santiago, RM, Chile) at room temperature, wavelength range between 200 and 1100 nm from 1.5 × 10^−5 mol/L solutions in dichloromethane to NN1 and [Cu(NN1)2]ClO4. […]

Where [8] appears, read: F. psychrophilum 10094, colony count diminished to 99.9%.
Where [9] appears, read: F. psychrophilum 10094, 72 h post-incubation at 15 °C, OD600, n = 3.

As for `[Cu+].[O-][Cl+3]([O-])([O-])[O-].c1ccc2nc(-c3ccc4ccccc4n3)ccc2c1.c1ccc2nc(-c3ccc4ccccc4n3)ccc2c1` [[Cu(biq)2]ClO4], the E1/2 in data set [1] was 0.96 V.
`O=c1ccc2ccccc2o1` [Coumarin, 1-benzopyran-2-one]: the IC50 (as a rule, the concentration that gives 50% inhibition) in data set [2] (Oncorhynchus mykiss, Epithelial cell, 24 h, read-out: IC50 (cellular)) was more than 512 µg/mL; in data set [3] (24 h, read-out: IC50 (cellular)), more than 512 µg/mL; in data set [4] (CHSE-214, 24 h, read-out: IC50 (cellular)) it was more than 512 µg/mL; in data set [5] (Flavobacterium psychrophilum, F. psychrophilum 10094, 72 h post-incubation at 15 °C, OD600, n = 3, read-out: IC50 (bacterial)), 160 ± 25.5 µg/mL (≈ 1.09 mM). The “toxicity (in words)” value in data set [2] (24 h), in data set [3] (24 h) and in data set [4] was “toxicity was not observed” in each case. Moreover, the MBC (in general, the lowest tested concentration that kills the bacteria rather than only halting them) in data set [5] (setting [8]) was more than 512 µg/mL; in data set [5] (Flavobacterium psychrophilum, 10094, F. psychrophilum 10094, colony count diminished to 99.9%, read-out: MBC), less than 512 µg/mL. The MIC – broadly, the lowest concentration that inhibits growth of the organism – in data set [5] (Flavobacterium psychrophilum, read-out: MIC) stood at 512 µg/mL (≈ 3.5 mM).
Consider `CC#N.CC#N.CC#N.CC#N.[Cu+].[O-][Cl+3]([O-])([O-])[O-]` [[Cu(CH3CN)4]ClO4], for which, in data set [2] (24 h), the “toxicity (in words)” value is “concentration-dependent toxicity was observed”. Moreover, the “IC50 (cellular)” value in data set [2] is 233.9 ± 19.5 ^a µg/mL. The “toxicity (in words)” value in data set [3] (24 h) is listed as “concentration-dependent toxicity was observed”. In addition, in data set [3], the “IC50 (cellular)” value is given as 159 ± 44.6 ^a µg/mL. In data set [4], the “toxicity (in words)” value is recorded as “concentration-dependent toxicity was observed” and the “IC50 (cellular)” value was 59.4 ± 4.1 ^a µg/mL. Besides, the “IC50 (bacterial)” value in data set [5] (setting [9]) is 10.4 ± 0.7 ^b µg/mL. In data set [5], the minimal inhibitory concentration (MIC) was determined as 64 µg/mL, the “Amount Cu in MBC” value stood at 12.5 µg/mL, the “Amount Cu in MIC” value is 12.5 µg/mL and the “Amount Total in IC50” value worked out at 10.4 µg/mL. Further, in data set [5], the “Amount Total in MBC” value is given as 64 µg/mL and the “Amount Total in MIC” value is 64 µg/mL. This molecule had a minimum bactericidal concentration (MBC) in data set [5] (setting [8]) of 64 µg/mL.
Take `O=c1ccc2cc(N=Cc3ccc4ccccc4n3)ccc2o1.O=c1ccc2cc(N=Cc3ccc4ccccc4n3)ccc2o1.[Cu+].[O-][Cl+3]([O-])([O-])[O-]` [[Cu(NN1)2]ClO4]: the “toxicity (in words)” value in data set [2] (24 h) is reported as “concentration-dependent toxicity was observed”. Also, in data set [2], the “IC50 (cellular)” value is listed as 53.0 ± 3.1 ^b µg/mL. For the same molecule, the “toxicity (in words)” value in data set [3] (24 h) is reported as “concentration-dependent toxicity was observed”. In addition, in data set [3], the “IC50 (cellular)” value is listed as 30.8 ± 1.3 ^b µg/mL. Besides, in data set [4], the “toxicity (in words)” value was “concentration-dependent toxicity was observed” and the “IC50 (cellular)” value is listed as 29.1 ± 1.4 ^b µg/mL. Also, in data set [6], the “stability in solution (changes in UV-Vis spectral bands)” value is on record as “No significant changes in the spectral bands”. The “E1/2 Cu(II)/Cu(I) couple” value in data set [7] worked out at 0.426 V. Moreover, in data set [5] (setting [9]), the “IC50 (bacterial)” value is recorded as 16.1 ± 0.9 ^c µg/mL. In addition, in data set [5], the minimum inhibitory concentration (MIC) is given as 32 µg/mL, the “Amount Cu in MBC” value amounted to 2.7 µg/mL, the “Amount Cu in MIC” value is recorded as 2.7 µg/mL and the “Amount Total in IC50” value worked out at 16.1 µg/mL. Besides, in data set [5], the “Amount Total in MBC” value is 32 µg/mL and the “Amount Total in MIC” value is 32 µg/mL. In data set [5] (setting [8]), this molecule had an MBC of 32 µg/mL.
